Experimental data: ChEMBL document CHEMBL1909046, “DrugMatrix in vitro pharmacology data”

Experiments:
Cytochrome P450 2C9 = Cytochrome P450 2C9 (Homo sapiens, UniProt P11712); conditions: bti-tn-5b1-4; also: in other assays of this panel Not Active means under 50% inhibition at 10 µM
Glucocorticoid receptor [1] = target: T1, Glucocorticoid receptor (Homo sapiens, UniProt P04150); assay: biochemical; also: in other assays of this panel Not Active means under 50% inhibition at 10 µM
T1 sequence (P04150 whole entry): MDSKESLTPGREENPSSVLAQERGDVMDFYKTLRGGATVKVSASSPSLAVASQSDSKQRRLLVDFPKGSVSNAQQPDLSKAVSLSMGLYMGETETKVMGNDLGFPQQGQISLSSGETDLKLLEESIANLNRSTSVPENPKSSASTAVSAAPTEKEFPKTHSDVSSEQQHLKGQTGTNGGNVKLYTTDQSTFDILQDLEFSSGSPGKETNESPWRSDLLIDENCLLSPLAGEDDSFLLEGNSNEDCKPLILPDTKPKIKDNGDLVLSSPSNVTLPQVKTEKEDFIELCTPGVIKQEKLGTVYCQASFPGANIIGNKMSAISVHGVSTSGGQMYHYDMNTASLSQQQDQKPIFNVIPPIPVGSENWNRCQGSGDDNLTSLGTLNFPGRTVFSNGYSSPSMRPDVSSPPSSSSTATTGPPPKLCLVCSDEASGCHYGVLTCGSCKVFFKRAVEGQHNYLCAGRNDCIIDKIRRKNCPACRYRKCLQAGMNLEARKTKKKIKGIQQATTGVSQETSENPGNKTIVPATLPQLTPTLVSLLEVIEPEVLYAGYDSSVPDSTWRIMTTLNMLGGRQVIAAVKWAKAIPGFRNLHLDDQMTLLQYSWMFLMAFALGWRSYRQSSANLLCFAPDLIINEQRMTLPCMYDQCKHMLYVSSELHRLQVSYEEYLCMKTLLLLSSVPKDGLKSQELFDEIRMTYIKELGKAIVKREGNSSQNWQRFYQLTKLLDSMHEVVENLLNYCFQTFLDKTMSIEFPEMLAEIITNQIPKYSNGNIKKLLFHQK

[2] = target: 5-hydroxytryptamine receptor 2B (Homo sapiens, UniProt P41595); assay type: cell membranes, CHO-K1, Membrane; also: in other assays of this panel Not Active means under 50% inhibition at 10 µM
Sequence of 5-hydroxytryptamine receptor 2B (P41595 whole entry): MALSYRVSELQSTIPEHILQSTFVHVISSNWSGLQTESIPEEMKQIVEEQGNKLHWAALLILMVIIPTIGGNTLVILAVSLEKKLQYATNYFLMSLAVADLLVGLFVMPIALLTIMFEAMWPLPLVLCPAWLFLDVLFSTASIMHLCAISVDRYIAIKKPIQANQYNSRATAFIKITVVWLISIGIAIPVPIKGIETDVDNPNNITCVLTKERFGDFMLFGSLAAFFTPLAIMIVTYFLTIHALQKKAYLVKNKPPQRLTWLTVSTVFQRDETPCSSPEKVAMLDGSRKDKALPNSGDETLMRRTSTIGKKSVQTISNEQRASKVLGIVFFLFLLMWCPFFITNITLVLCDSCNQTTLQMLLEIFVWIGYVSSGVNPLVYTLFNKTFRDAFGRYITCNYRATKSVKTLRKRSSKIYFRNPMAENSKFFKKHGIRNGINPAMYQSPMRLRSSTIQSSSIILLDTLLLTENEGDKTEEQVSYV

Androgen receptor = target: T2, Androgen receptor (Rattus norvegicus, UniProt P15207); also: in other assays of this panel Not Active means under 50% inhibition at 10 µM
T2 sequence (P15207 whole entry): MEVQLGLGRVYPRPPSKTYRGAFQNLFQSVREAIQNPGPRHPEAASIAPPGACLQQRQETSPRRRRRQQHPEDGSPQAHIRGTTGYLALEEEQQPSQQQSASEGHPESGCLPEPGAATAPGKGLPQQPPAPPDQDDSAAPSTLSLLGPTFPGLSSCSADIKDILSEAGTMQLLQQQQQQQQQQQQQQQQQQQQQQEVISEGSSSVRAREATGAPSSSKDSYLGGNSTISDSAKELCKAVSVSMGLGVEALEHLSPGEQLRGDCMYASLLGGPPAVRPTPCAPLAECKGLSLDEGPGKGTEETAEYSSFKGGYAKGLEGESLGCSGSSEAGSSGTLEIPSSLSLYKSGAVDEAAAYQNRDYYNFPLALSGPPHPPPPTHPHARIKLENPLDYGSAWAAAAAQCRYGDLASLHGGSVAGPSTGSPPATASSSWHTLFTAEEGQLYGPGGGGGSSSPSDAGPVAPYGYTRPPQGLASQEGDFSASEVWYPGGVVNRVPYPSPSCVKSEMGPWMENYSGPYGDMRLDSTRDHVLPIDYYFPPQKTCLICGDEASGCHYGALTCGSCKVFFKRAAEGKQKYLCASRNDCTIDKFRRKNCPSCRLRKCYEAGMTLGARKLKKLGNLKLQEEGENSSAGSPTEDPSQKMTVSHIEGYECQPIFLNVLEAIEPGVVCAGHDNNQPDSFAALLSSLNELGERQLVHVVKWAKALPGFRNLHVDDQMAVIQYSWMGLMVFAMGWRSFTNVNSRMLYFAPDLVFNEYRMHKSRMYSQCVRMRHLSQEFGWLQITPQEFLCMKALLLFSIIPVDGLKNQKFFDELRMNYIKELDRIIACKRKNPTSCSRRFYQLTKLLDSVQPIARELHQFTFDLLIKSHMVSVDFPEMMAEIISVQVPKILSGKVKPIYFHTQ

Mu-type opioid receptor = Mu-type opioid receptor (Homo sapiens, UniProt P35372); assay: DRUGMATRIX: Opiate mu (OP3, MOP) radioligand binding (ligand: [3H] Diprenorphine); assay type: cell membranes, CHO-K1, Membrane; conditions: cho-k1; Not Active = under 50% inhibition at 10 µM
Sequence of Mu-type opioid receptor (P35372 whole entry): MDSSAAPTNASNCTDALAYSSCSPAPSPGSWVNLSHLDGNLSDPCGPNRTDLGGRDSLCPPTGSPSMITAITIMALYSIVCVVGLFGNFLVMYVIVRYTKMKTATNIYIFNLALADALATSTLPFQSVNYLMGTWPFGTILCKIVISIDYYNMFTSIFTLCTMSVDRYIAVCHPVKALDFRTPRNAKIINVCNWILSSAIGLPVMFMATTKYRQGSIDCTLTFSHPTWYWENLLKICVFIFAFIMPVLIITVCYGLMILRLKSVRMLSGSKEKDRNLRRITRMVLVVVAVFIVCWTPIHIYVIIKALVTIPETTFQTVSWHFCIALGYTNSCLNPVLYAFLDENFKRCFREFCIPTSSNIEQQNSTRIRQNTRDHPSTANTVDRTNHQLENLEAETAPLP

Glucocorticoid receptor [3] = target: T1, Glucocorticoid receptor; conditions: hela s3

Sequence of Cytochrome P450 2C9 (P11712 whole entry): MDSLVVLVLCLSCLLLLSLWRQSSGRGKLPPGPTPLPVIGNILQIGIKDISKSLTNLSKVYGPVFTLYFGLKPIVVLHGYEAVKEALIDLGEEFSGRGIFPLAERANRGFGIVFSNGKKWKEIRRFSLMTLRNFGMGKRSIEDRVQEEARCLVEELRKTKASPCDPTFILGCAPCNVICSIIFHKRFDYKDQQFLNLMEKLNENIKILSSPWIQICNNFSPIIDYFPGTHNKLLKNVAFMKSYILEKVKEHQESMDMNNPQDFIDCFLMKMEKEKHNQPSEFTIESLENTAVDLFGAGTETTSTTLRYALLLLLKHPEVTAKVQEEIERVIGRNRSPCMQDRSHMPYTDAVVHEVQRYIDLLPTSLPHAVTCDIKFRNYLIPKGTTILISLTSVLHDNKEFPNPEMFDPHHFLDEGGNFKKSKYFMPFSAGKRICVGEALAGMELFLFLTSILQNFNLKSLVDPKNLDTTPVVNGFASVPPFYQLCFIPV

Compound | IC50 (Cytochrome P450 2C9) | Ki (Cytochrome P450 2C9) | IC50 (Glucocorticoid receptor [1]) | Ki (Glucocorticoid receptor [1]) | IC50 ([2]; read-out: IC50) | Ki ([2]; read-out: Ki) | IC50 (Androgen receptor) | IC50 (Mu-type opioid receptor) | IC50 ([2]; cho-k1) | Ki (Androgen receptor) | IC50 (Glucocorticoid receptor [3]) | Ki (Glucocorticoid receptor [3]) | Ki (Mu-type opioid receptor) | Ki ([2]; cho-k1)
S=C=Nc1cccc2ccccc12 [1-NAPHTHYLISOTHIOCYANATE] | Not Active | Not Active | 15400 nM | 7000 nM | 25200 nM | 16000 nM | – | – | – | – | – | – | – | –
CC(=O)Nc1ccc(O)cc1 [ACETAMINOPHEN] | Not Active | Not Active | – | – | – | – | Not Active | Not Active | Not Active | – | – | – | – | –
COc1cc2c(c3oc(=O)c4c(c13)CCC4=O)[C@@H]1C=CO[C@@H]1O2 [AFLATOXIN] | Not Active | Not Active | – | – | – | – | Not Active | Not Active | Not Active | Not Active | Not Active | Not Active | Not Active | Not Active
Cc1cc(=O)n(-c2ccccc2)n1C [ANTIPYRINE] | – | – | – | – | – | – | Not Active | Not Active | Not Active | – | – | – | – | –
O=C1CC2(CCCC2)CC(=O)N1CCCCN1CCN(c2ncccn2)CC1 [BUSPIRONE] | Not Active | Not Active | – | – | 750 nM | 477 nM | Not Active | Not Active | – | – | – | – | – | –
O=NN(CCCl)C(=O)NCCCl [CARMUSTINE] | – | – | – | – | – | – | Not Active | Not Active | Not Active | – | Not Active | – | – | –
CC(=O)OCC(=O)[C@@]1(O)CC[C@H]2[C@@H]3CCC4=CC(=O)CC[C@]4(C)[C@H]3C(=O)C[C@@]21C [CORTISONE ACETATE] | Not Active | Not Active | – | – | – | – | Not Active | Not Active | Not Active | – | – | – | – | –
O=C(O)Cc1ccccc1Nc1c(Cl)cccc1Cl [DICLOFENAC] | Not Active | Not Active | – | – | – | – | Not Active | Not Active | Not Active | – | – | – | – | –
C[C@H]1O[C@@H](O[C@H]2[C@@H](O)C[C@H](O[C@H]3[C@@H](O)C[C@H](O[C@H]4CC[C@@]5(C)[C@H](CC[C@@H]6[C@@H]5CC[C@]5(C)[C@@H](C7=CC(=O)OC7)CC[C@]65O)C4)O[C@@H]3C)O[C@@H]2C)C[C@H](O)[C@@H]1O [DIGITOXIN] | Not Active | Not Active | – | – | – | – | Not Active | Not Active | Not Active | – | Not Active | – | – | –
Cn1c(=O)c2c(ncn2CC2OCCO2)n(C)c1=O [DOXOFYLLINE] | Not Active | Not Active | – | – | – | – | Not Active | Not Active | Not Active | – | – | – | – | –
COc1cccc2c1C(=O)c1c(O)c3c(c(O)c1C2=O)C[C@@](O)(C(=O)CO)C[C@@H]3O[C@H]1C[C@H](N)[C@@H](O)[C@H](C)O1 [EPIRUBICIN] | Not Active | Not Active | – | – | – | – | – | Not Active | Not Active | – | Not Active | – | – | –
C[C@]12CC[C@@H]3c4ccc(OC(=O)c5ccccc5)cc4CC[C@H]3[C@@H]1CC[C@@H]2O [ESTRADIOL BENZOATE] | Not Active | Not Active | 5070 nM | 2310 nM | 11600 nM | 7360 nM | – | Not Active | – | – | – | – | – | –
CC1(C)O[C@@H]2C[C@H]3[C@@H]4C[C@H](F)C5=CC(=O)C=C[C@]5(C)[C@H]4[C@@H](O)C[C@]3(C)[C@]2(C(=O)CO)O1 [FLUNISOLIDE] | Not Active | Not Active | 5.33 nM | 2.42 nM | – | – | – | Not Active | Not Active | – | – | – | – | –
CC1(C)O[C@@H]2C[C@H]3[C@@H]4C[C@H](F)C5=CC(=O)C=C[C@]5(C)[C@@]4(F)[C@@H](O)C[C@]3(C)[C@]2(C(=O)CO)O1 [FLUOCINOLONE ACETONIDE] | Not Active | Not Active | 3.13 nM | 1.42 nM | – | – | – | Not Active | Not Active | – | – | – | – | –
CC(C)Cc1ccc(C(C)C(=O)O)cc1 (centres undefined) [IBUPROFEN] | Not Active | Not Active | – | – | – | – | – | Not Active | Not Active | – | Not Active | – | – | –
COc1ccc2c(c1)c(CC(=O)O)c(C)n2C(=O)c1ccc(Cl)cc1 [INDOMETHACIN] | Not Active | Not Active | – | – | – | – | Not Active | Not Active | Not Active | – | Not Active | – | – | –

Compound | IC50 (Cytochrome P450 2C9) | Ki (Cytochrome P450 2C9) | IC50 (Glucocorticoid receptor [1]) | Ki (Glucocorticoid receptor [1]) | IC50 ([2]; read-out: IC50) | Ki ([2]; read-out: Ki) | IC50 (Androgen receptor) | IC50 (Mu-type opioid receptor) | IC50 ([2]; cho-k1) | Ki (Androgen receptor) | IC50 (Glucocorticoid receptor [3]) | Ki (Glucocorticoid receptor [3]) | Ki (Mu-type opioid receptor) | Ki ([2]; cho-k1)
CCc1c2c(nc3ccc(OC(=O)N4CCC(N5CCCCC5)CC4)cc13)-c1cc3c(c(=O)n1C2)COC(=O)[C@]3(O)CC [IRINOTECAN] | Not Active | Not Active | – | – | – | – | – | Not Active | Not Active | – | Not Active | – | – | –
Nc1ccn([C@@H]2CS[C@H](CO)O2)c(=O)n1 [LAMIVUDINE] | Not Active | Not Active | – | – | – | – | – | Not Active | Not Active | – | Not Active | – | – | –
O=S(=O)([O-])CCS.[Na+] [MESNA] | Not Active | Not Active | – | – | – | – | – | Not Active | Not Active | – | Not Active | – | – | –
C#C[C@]1(O)CC[C@H]2[C@@H]3CCc4cc(OC)ccc4[C@H]3CC[C@@]21C [MESTRANOL] | Not Active | Not Active | – | – | – | – | – | Not Active | Not Active | – | Not Active | – | – | –
CC(C)(C(=O)c1cccnc1)c1cccnc1 [METYRAPONE] | Not Active | Not Active | – | – | – | – | – | Not Active | Not Active | – | Not Active | – | – | –
Oc1ccc(OCc2ccccc2)cc1 [MONOBENZONE] | – | – | – | – | – | – | Not Active | Not Active | Not Active | – | Not Active | – | – | –
CC(C)(Oc1ccc(C2CCCc3ccccc32)cc1)C(=O)O (centres undefined) [NAFENOPIN] | Not Active | Not Active | – | – | – | – | Not Active | Not Active | Not Active | – | Not Active | – | – | –
CC(C)[C@H]1CC[C@H](C(=O)N[C@H](Cc2ccccc2)C(=O)O)CC1 [NATEGLINIDE] | Not Active | Not Active | – | – | – | – | – | Not Active | Not Active | – | Not Active | – | – | –
Cc1nccn1CC1CCc2c(c3ccccc3n2C)C1=O (centres undefined) [ONDANSETRON] | Not Active | Not Active | – | – | 717 nM | 456 nM | – | Not Active | – | – | Not Active | – | – | –
O=C(C1CCCCC1)N1CC(=O)N2CCc3ccccc3C2C1 (centres undefined) [PRAZIQUANTEL] | Not Active | Not Active | – | – | – | – | – | Not Active | Not Active | – | Not Active | – | – | –
CCCN(CCC)C(=O)C(CCC(=O)O)NC(=O)c1ccccc1 (centres undefined) [PROGLUMIDE] | Not Active | Not Active | – | – | – | – | – | Not Active | Not Active | – | Not Active | – | – | –
NC(=O)c1cnccn1 [PYRAZINAMIDE] | Not Active | Not Active | – | – | – | – | – | Not Active | Not Active | – | Not Active | – | – | –
CCCC(CCC)C(=O)O [VALPROIC ACID] | Not Active | Not Active | – | – | – | – | – | Not Active | Not Active | – | Not Active | – | – | –
CCC1=C[C@@H]2CN(C1)Cc1c([nH]c3ccccc13)[C@@](C(=O)OC)(c1cc3c(cc1OC)N(C)[C@H]1[C@@](O)(C(=O)OC)[C@H](OC(C)=O)[C@]4(CC)C=CCN5CC[C@]31[C@@H]54)C2 [VINORELBINE] | Not Active | Not Active | – | – | – | – | – | Not Active | Not Active | – | Not Active | – | – | –
CADMIUM DICHLORIDE | Not Active | Not Active | – | – | – | – | Not Active | – | Not Active | Not Active | Not Active | Not Active | – | Not Active
